How the values were obtained:
NKG2A+/NKG2C− NK cells = test: NK cell activation markers in NKG2A+/NKG2C- NK cells incubated with peptide and K562 expressing HLA-E (inhibition); type: cell-based, human; settings: for percentage of CCL3+ NK cells / percentage of CD107a+ NK cells / percentage of IFNG+ NK cells / percentage of TNF+ NK cells: NKG2A+/NKG2C- NK cells, K562/HLA-E
Protocol: (§1) A human immortalized myelogenous leukemia cell line (K562), which expresses HLA-E was incubated with novel peptides (Table 1) derived from the human proteome or human cytomegalovirus proteome. […] Controls assessments were also performed using NKG2A−/NKG2C− cells (Tables 10-13). Inhibition was indicated by a decrease in percent cells positive for cell surface markers, while activation was indicated by an increase in percent cells positive for cell surface markers.

NKG2A−/NKG2C+ NK cells = test: NK cell activation markers in NKG2A-/NKG2C+ NK cells incubated with peptide and K562 expressing HLA-E (activation); type: cell-based, human; settings: for percentage of CCL3+ NK cells / percentage of CD107+ NK cells / percentage of IFNG+ NK cells / percentage of TNF+ NK cells: NKG2A-/NKG2C+ NK cells, K562/HLA-E
Protocol: as §1

NKG2A−/NKG2C− NK cells = test: NK cell activation markers in control NKG2A-/NKG2C- NK cells incubated with peptide and K562 expressing HLA-E; type: cell-based, human
Protocol: as §1

HLA-E = target: T1, HLA-E (Homo sapiens, UniProt P13747); test: HLA-E surface stabilization assay with RMA-S/HLA-E cells; type: cell-based; settings: 30 μM peptide, 16 hours; for HLA-E surface expression stability (GeoMFI): anti-HLA-E antibody
T1 construct: expressed in transfected cells; host or cells: RMA-S/HLA-E cells (antigen processing-defective lymphoma cell line)
Protocol: HLA-E surface expression was assessed by measuring geometric mean fluorescence intensity (GeoMFI) in RMA-S cells following immunofluorescence staining with an anti-HLA-E antibody (Table 14). Increased GeoMFI was indicative of increased HLA-E surface expression stability following novel peptide exposures (FIG. 3).

[1] = K562 expressing HLA-E, CD107a, IFNG, TNF, CCL3

T1 sequence (P13747 22-358): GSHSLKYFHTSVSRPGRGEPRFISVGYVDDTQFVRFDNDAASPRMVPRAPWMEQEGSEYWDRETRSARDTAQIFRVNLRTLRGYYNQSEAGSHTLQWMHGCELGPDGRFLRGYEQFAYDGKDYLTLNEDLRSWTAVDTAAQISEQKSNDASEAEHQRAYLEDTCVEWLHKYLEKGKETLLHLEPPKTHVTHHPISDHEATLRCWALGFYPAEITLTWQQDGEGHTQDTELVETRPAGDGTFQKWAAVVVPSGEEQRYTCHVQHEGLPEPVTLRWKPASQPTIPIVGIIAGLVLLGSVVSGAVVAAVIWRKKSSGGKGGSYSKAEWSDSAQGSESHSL
T1 sequence (P61769 21-119 partner): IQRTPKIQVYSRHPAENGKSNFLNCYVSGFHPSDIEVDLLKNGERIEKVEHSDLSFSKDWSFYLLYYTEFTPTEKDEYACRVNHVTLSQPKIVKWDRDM

With “FLPNRSLLF [human8, peptide SLC52A3 354-362 derived from the human proteome]” as the sequence, how does the “effect on NKG2A+/NKG2C− NK cell inhibition (in words)” value (NKG2A+/NKG2C− NK cells; [1]) read?
The value was “mild inhibitory effects”.

And the “percentage of CCL3+ NK cells” value (NKG2A+/NKG2C− NK cells; Trial 1)?
The value was 39.5%.

And the “percentage of CD107a+ NK cells” value (NKG2A+/NKG2C− NK cells; Trial 1)?
Its value is 19.1%.

What about the “percentage of IFNG+ NK cells” value (NKG2A+/NKG2C− NK cells; Trial 1) of the same sequence?
The value was 5.56%.

And the “percentage of TNF+ NK cells” value (NKG2A+/NKG2C− NK cells; Trial 1)?
The value was 1.84%.

What about the “percentage of CCL3+ NK cells” value (NKG2A+/NKG2C− NK cells; Trial 2) of the same sequence?
Its value is 56%.

And the “percentage of CD107a+ NK cells” value (NKG2A+/NKG2C− NK cells; Trial 2)?
Its value is 26.4%.

What about the “percentage of IFNG+ NK cells” value (NKG2A+/NKG2C− NK cells; Trial 2) of the same sequence?
Its value is 10.5%.

And the “percentage of TNF+ NK cells” value (NKG2A+/NKG2C− NK cells; Trial 2)?
Its value is 4.8%.

What about the “percentage of CCL3+ NK cells” value (NKG2A+/NKG2C− NK cells; Trial 3) of the same sequence?
Its value is 38.2%.

And the “percentage of CD107a+ NK cells” value (NKG2A+/NKG2C− NK cells; Trial 3)?
The value was 27.5%.

What about the “percentage of IFNG+ NK cells” value (NKG2A+/NKG2C− NK cells; Trial 3) of the same sequence?
The value was 14.7%.

What about the “percentage of TNF+ NK cells” value (NKG2A+/NKG2C− NK cells; Trial 3) of the same sequence?
Its value is 6.96%.

What about the “percentage of CCL3+ NK cells” value (NKG2A+/NKG2C− NK cells; Trial 4) of the same sequence?
Its value is 32.8%.

What about the “percentage of CD107a+ NK cells” value (NKG2A+/NKG2C− NK cells; Trial 4) of the same sequence?
Its value is 28.2%.

And the “percentage of IFNG+ NK cells” value (NKG2A+/NKG2C− NK cells; Trial 4)?
Its value is 12.7%.

And the “percentage of TNF+ NK cells” value (NKG2A+/NKG2C− NK cells; Trial 4)?
Its value is 7.59%.

What about the “percentage of CCL3+ NK cells” value (NKG2A+/NKG2C− NK cells; Trial 5) of the same sequence?
The value was 33.3%.

And the “percentage of CD107a+ NK cells” value (NKG2A+/NKG2C− NK cells; Trial 5)?
The value was 17.7%.

And the “percentage of IFNG+ NK cells” value (NKG2A+/NKG2C− NK cells; Trial 5)?
The value was 7.1%.

What about the “percentage of TNF+ NK cells” value (NKG2A+/NKG2C− NK cells; Trial 5) of the same sequence?
Its value is 3.6%.

What about the “percentage of CCL3+ NK cells” value (NKG2A+/NKG2C− NK cells; Trial 6) of the same sequence?
Its value is 27.1%.

And the “percentage of CD107a+ NK cells” value (NKG2A+/NKG2C− NK cells; Trial 6)?
The value was 20%.

What about the “percentage of IFNG+ NK cells” value (NKG2A+/NKG2C− NK cells; Trial 6) of the same sequence?
Its value is 6.74%.

And the “percentage of TNF+ NK cells” value (NKG2A+/NKG2C− NK cells; Trial 6)?
Its value is 4.07%.

What about the “effect on NKG2A−/NKG2C+ NK cell activation (in words)” value (NKG2A−/NKG2C+ NK cells; [1]) of the same sequence?
The value was “strong activating effects”.

What about the “percentage of CCL3+ NK cells” value (NKG2A−/NKG2C+ NK cells; Trial 1) of the same sequence?
Its value is 75.5%.

And the “percentage of CD107+ NK cells” value (NKG2A−/NKG2C+ NK cells; Trial 1)?
Its value is 73.7%.

And the “percentage of IFNG+ NK cells” value (NKG2A−/NKG2C+ NK cells; Trial 1)?
Its value is 58.6%.

And the “percentage of TNF+ NK cells” value (NKG2A−/NKG2C+ NK cells; Trial 1)?
Its value is 45.1%.

And the “percentage of CCL3+ NK cells” value (NKG2A−/NKG2C+ NK cells; Trial 2)?
The value was 89%.

What about the “percentage of CD107+ NK cells” value (NKG2A−/NKG2C+ NK cells; Trial 2) of the same sequence?
Its value is 82.1%.

And the “percentage of IFNG+ NK cells” value (NKG2A−/NKG2C+ NK cells; Trial 2)?
The value was 74.8%.

And the “percentage of TNF+ NK cells” value (NKG2A−/NKG2C+ NK cells; Trial 2)?
Its value is 64%.

And the “percentage of CCL3+ NK cells” value (NKG2A−/NKG2C+ NK cells; Trial 3)?
The value was 84.1%.

And the “percentage of CD107+ NK cells” value (NKG2A−/NKG2C+ NK cells; Trial 3)?
The value was 84.3%.

What about the “percentage of IFNG+ NK cells” value (NKG2A−/NKG2C+ NK cells; Trial 3) of the same sequence?
The value was 74.5%.

And the “percentage of TNF+ NK cells” value (NKG2A−/NKG2C+ NK cells; Trial 3)?
Its value is 63.7%.

And the “percentage of CCL3+ NK cells” value (NKG2A−/NKG2C+ NK cells; Trial 4)?
Its value is 65.3%.

What about the “percentage of CD107+ NK cells” value (NKG2A−/NKG2C+ NK cells; Trial 4) of the same sequence?
The value was 64.8%.

What about the “percentage of IFNG+ NK cells” value (NKG2A−/NKG2C+ NK cells; Trial 4) of the same sequence?
The value was 54%.

And the “percentage of TNF+ NK cells” value (NKG2A−/NKG2C+ NK cells; Trial 4)?
Its value is 43.7%.

And the “percentage of CCL3+ NK cells” value (NKG2A−/NKG2C+ NK cells; Trial 5)?
Its value is 74.6%.

What about the “percentage of CD107+ NK cells” value (NKG2A−/NKG2C+ NK cells; Trial 5) of the same sequence?
The value was 70.7%.

What about the “percentage of IFNG+ NK cells” value (NKG2A−/NKG2C+ NK cells; Trial 5) of the same sequence?
Its value is 62.3%.

And the “percentage of TNF+ NK cells” value (NKG2A−/NKG2C+ NK cells; Trial 5)?
The value was 57.1%.

What about the “percentage of CCL3+ NK cells” value (NKG2A−/NKG2C+ NK cells; Trial 6) of the same sequence?
The value was 57%.

What about the “percentage of CD107+ NK cells” value (NKG2A−/NKG2C+ NK cells; Trial 6) of the same sequence?
Its value is 53.1%.

And the “percentage of IFNG+ NK cells” value (NKG2A−/NKG2C+ NK cells; Trial 6)?
The value was 43.8%.

And the “percentage of TNF+ NK cells” value (NKG2A−/NKG2C+ NK cells; Trial 6)?
The value was 31.7%.

What about the “percentage CCL3+ NK cells” value (NKG2A−/NKG2C− NK cells; Trial 1) of the same sequence?
Its value is 33.5%.

What about the “percentage CD107+ NK cells” value (NKG2A−/NKG2C− NK cells; Trial 1) of the same sequence?
The value was 27.7%.

And the “percentage TNF+ NK cells” value (NKG2A−/NKG2C− NK cells; Trial 1)?
Its value is 4.82%.

And the “percentage of IFNG+ NK cells” value (NKG2A−/NKG2C− NK cells; Trial 1)?
The value was 14.7%.

And the “percentage CCL3+ NK cells” value (NKG2A−/NKG2C− NK cells; Trial 2)?
Its value is 60.3%.

What about the “percentage CD107+ NK cells” value (NKG2A−/NKG2C− NK cells; Trial 2) of the same sequence?
The value was 36.2%.

What about the “percentage TNF+ NK cells” value (NKG2A−/NKG2C− NK cells; Trial 2) of the same sequence?
The value was 10.5%.

And the “percentage of IFNG+ NK cells” value (NKG2A−/NKG2C− NK cells; Trial 2)?
The value was 28.8%.

And the “percentage CCL3+ NK cells” value (NKG2A−/NKG2C− NK cells; Trial 3)?
The value was 52.4%.

And the “percentage CD107+ NK cells” value (NKG2A−/NKG2C− NK cells; Trial 3)?
Its value is 47.3%.

What about the “percentage TNF+ NK cells” value (NKG2A−/NKG2C− NK cells; Trial 3) of the same sequence?
Its value is 16.5%.

And the “percentage of IFNG+ NK cells” value (NKG2A−/NKG2C− NK cells; Trial 3)?
The value was 38%.

And the “percentage CCL3+ NK cells” value (NKG2A−/NKG2C− NK cells; Trial 4)?
Its value is 32%.

What about the “percentage CD107+ NK cells” value (NKG2A−/NKG2C− NK cells; Trial 4) of the same sequence?
Its value is 28.6%.

What about the “percentage TNF+ NK cells” value (NKG2A−/NKG2C− NK cells; Trial 4) of the same sequence?
The value was 9.61%.

What about the “percentage of IFNG+ NK cells” value (NKG2A−/NKG2C− NK cells; Trial 4) of the same sequence?
The value was 18.6%.

And the “percentage CCL3+ NK cells” value (NKG2A−/NKG2C− NK cells; Trial 5)?
The value was 29.2%.

And the “percentage CD107+ NK cells” value (NKG2A−/NKG2C− NK cells; Trial 5)?
The value was 20.2%.

What about the “percentage TNF+ NK cells” value (NKG2A−/NKG2C− NK cells; Trial 5) of the same sequence?
Its value is 6.07%.

What about the “percentage of IFNG+ NK cells” value (NKG2A−/NKG2C− NK cells; Trial 5) of the same sequence?
Its value is 14.2%.

And the “percentage CCL3+ NK cells” value (NKG2A−/NKG2C− NK cells; Trial 6)?
The value was 24.8%.

What about the “percentage CD107+ NK cells” value (NKG2A−/NKG2C− NK cells; Trial 6) of the same sequence?
The value was 19.3%.

What about the “percentage TNF+ NK cells” value (NKG2A−/NKG2C− NK cells; Trial 6) of the same sequence?
The value was 3.78%.

And the “percentage of IFNG+ NK cells” value (NKG2A−/NKG2C− NK cells; Trial 6)?
Its value is 10.9%.

What about the “HLA-E surface expression stability (GeoMFI)” value (HLA-E; Trial 1) of the same sequence?
The value was 1066 GeoMFI.

And the “HLA-E surface expression stability (GeoMFI)” value (HLA-E; Trial 2)?
The value was 813 GeoMFI.

And the “HLA-E surface expression stability (GeoMFI)” value (HLA-E; Trial 3)?
The value was 1049 GeoMFI.

What about the “HLA-E surface expression stability (GeoMFI)” value (HLA-E; Trial 4) of the same sequence?
The value was 1654 GeoMFI.

And the “HLA-E surface expression stabilization strength, approximate GeoMFI” value (HLA-E; approximate value)?
The value was “approximately 1×10^3 GeoMFI”.
